Legend:
sGC [1] = molecular target: T1, sGC (Bos taurus, UniProt P16068); conditions: reference (34), cited from earlier work
T1 sequence (P16068 1-619): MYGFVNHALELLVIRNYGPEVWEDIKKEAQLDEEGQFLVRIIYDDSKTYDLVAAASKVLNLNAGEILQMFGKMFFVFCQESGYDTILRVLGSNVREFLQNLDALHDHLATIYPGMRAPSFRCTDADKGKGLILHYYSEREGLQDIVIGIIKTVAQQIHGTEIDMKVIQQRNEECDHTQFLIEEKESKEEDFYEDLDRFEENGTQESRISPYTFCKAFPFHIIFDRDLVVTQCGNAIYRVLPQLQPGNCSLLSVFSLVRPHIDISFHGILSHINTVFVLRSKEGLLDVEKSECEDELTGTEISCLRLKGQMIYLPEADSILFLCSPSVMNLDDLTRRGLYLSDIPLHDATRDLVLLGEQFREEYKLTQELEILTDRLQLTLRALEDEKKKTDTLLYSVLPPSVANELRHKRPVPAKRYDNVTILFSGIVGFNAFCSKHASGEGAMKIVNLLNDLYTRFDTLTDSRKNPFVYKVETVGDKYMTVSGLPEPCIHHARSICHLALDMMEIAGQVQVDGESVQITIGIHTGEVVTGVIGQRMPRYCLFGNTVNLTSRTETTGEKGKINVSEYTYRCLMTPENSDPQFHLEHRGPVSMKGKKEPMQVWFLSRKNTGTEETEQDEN
T1 sequence (P19687 1-691 partner): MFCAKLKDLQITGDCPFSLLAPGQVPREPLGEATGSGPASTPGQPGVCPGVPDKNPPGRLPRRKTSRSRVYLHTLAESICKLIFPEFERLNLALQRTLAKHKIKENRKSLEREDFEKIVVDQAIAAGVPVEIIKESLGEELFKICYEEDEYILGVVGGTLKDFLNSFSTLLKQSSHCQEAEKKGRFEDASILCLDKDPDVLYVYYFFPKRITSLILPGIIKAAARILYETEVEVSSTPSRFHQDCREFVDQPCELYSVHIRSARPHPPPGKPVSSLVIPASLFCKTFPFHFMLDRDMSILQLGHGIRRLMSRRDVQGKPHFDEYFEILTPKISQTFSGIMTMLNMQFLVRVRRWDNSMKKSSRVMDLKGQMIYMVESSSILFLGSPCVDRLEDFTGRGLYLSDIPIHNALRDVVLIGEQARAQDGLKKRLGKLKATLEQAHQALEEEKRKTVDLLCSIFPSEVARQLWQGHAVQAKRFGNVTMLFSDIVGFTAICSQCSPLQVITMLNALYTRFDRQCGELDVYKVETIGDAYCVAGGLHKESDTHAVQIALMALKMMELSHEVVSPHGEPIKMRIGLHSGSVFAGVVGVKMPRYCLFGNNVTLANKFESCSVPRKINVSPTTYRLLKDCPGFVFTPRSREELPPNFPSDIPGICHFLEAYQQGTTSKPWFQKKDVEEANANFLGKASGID

[2] = system: VASP serine-239 phosphorylation (cGMP-dependent protein kinase activation); assay: Western blot of VASP serine-239 phosphorylation in BPA; type: cell-based, bovine
Description: Rings from studies on contractile function were snap-frozen in liquid nitrogen, crushed and homogenized in lysis buffer (50 mM Tris-HCl, pH 8.0, 150 mM NaCl, 1 mM EDTA, 1% Triton X-100, 0.5% sodium deoxycholate, 0.1% sodium dodecyl sulfate, 1% of a protease inhibitor cocktail (Sigma) and 1% of a phosphatase inhibitor cocktail (Sigma). The protease inhibitor cocktail included 4-(2-aminoethyl)benzenesulfonyl floride hydrocholride, aprotinin, bestatin hydrochloride, N-(trans-epoxsuccinyl)-L-leucine-4-guanidinobutylamide, leupeptine hemisulfate, pepstatin and the phosphatase inhibitor cocktail included sodium orthovandate, sodium molybdate, sodium tartarate, and imidazole. Protein concentration was determined and 30 μg of protein samples were prepared in electrophoresis sample buffer containing 3% SDS and 3% β-mercaptoethanol and were separated using a 12% gel SDS-PAGE electrophoresis. Membranes were blocked for 1 h in TBST-5% milk and incubated overnight with phospho-VASP antibodies (diluted 1:1000). Membranes were exposed to a secondary horse radish peroxidase linked antibody and visualized with an ECL kit (Amersham). The membranes were subsequently exposed to X-OMAT autoradiography paper (Kodak). Membranes were stripped with TRIS-HCl buffer with 100 mM β-mercaptoethanol at 50° C. for 30 min. Membranes were subsequently washed, blocked and detected for total VASP. Each measurement of phosphorylated VASP was normalized to the total level of VASP, and data are reported as the percent of the levels of phosphorylated VASP seen in control arteries not exposed to agents which modulate the activity of sGC. Expression of sGC was detected with β-sGC subunit antibodies (diluted 1:2000), employing anti-rabbit secondary antibodies, and a protocol where membranes were blocked for 2 h. After analyzing for sGC protein expression, blots were stripped and re-probed for the detection of α-actin protein levels, which were used for normalization of data for statistical analysis based on protein loading.

[3] = system: bovine pulmonary arteries (BPA); assay: Isometric force generation to serotonin (5-HT) in organ cultured BPA rings; type: cell-based
Description: (§1) Organoid Culture Isolated Arteries for Heme Modulation. Intralobar BPA were isolated from slaughterhouse-derived bovine calf lungs, cleaned from surrounding tissue, and placed in 37° C. Dulbecco's Modified Eagle Medium (DMEM) containing 10% fetal bovine serum, penicillin, streptomycin, and fungizone (complete media). The arteries were isolated and cut into rings ˜2 mm in diameter and width, and the endothelium was removed by gentle rubbing of the lumen. Various compounds (i.e. ALA, FeSO4(Fe), deferoxamine) were added as described in the Results to various experimental groups, and these arteries were organ cultured overnight for 24 h in complete media in a 37° C.-5% CO2 incubator. Preliminary experiments on the time course for detection protoporphyrin IX accumulation and the effects of organ culture with doses of ALA in the 10-100 μM concentration range on contractile function, and minimizing the duration of organ culture were considerations that contributed to selecting the 24 h culture period used in this study.
Studies on the Regulation of Contractile Function. Following the overnight incubation, arterial rings were mounted on wire hooks attached to Grass (FT03) force displacement transducers for measurement of changes in isometric force. Tension was adjusted to 5 g, which is the optimal passive force for maximal contraction. Changes in force were recorded on a Grass polygraph (model 7), while vessels were incubated in 10-ml baths (Metro Scientific), which were individually thermostated (37° C.) in Krebs buffer gassed with 21% O2-5% CO2 (balance N2) in the absence of compounds used to modulate BPA protoporphyrin IX levels. Arteries were incubated for 1 h during which passive tension was adjusted to maintain 5 grams. The vessels were then depolarized with Krebs containing 123 mM KCl (High K^+) in place of NaCl, followed by re-equilibration with Krebs, prior to exposure to the experimental protocols. Following the wash with Krebs buffer after the High K^+ treatment, and a 30 min equilibration, BPA were then contracted with serotonin (5-HT) in a dose dependent manner to determine the response to this contractile agent. In some experiments, BPA were pretreated with the sGC inhibitor, 10 μM ODQ, for 15 min before contraction with serotonin. The effects of ODQ on relaxation to NO was determined by first contracting organ cultured control and ODQ-treated BPA with 1 μM 5-HT (after the initial exposure to increasing concentrations of 5-HT and a 30 min equilibration in Krebs).

[4] = system: bovine pulmonary arteries (BPA); assay: Protoporphyrin IX-associated tissue fluorescence in organ cultured BPA rings; type: cell-based
Description: as §1
Determination Changes in Protoporphyrin 1× and Heme Levels. Methods for the detection of protoporphyrin IX tissue fluorescence developed for the detection in cancerous cells with tissue depths of up to several millimeters (27) were adapted for detecting changes in the endogenous levels of protoporphyrin IX in BPA rings which were organ cultured with ALA. When excited with light in the regions of 505 and 540 nm, protoporphyrin IX has an emission in the region of 635 nm. […] Increases in protoporphyrin IX were measured using an excitation wavelength of 528±20 nm and emission of 620±40 nm in intact vessels. Ring segments of approximately equal size (˜4 mm in diameter and length) were centered on the bottom of the ˜6 mm diameter wells of a 96 well microplate with 200 μl of Krebs containing with 10 mM Hepes buffer (pH 7.4), and the fluorescence was measured from the bottom surface of the plate using BIOTEK fluorescent microplate reader (Model FLx800i). Data are reported in the arbitrary fluorescence units measured (AU), after subtraction of the low levels of background fluorescence observed in the absence of BPA.

[5] = system: bovine pulmonary arteries (BPA); assay: Heme content of BPA homogenates (QuantiChrom heme assay); type: cell-based; conditions: organ culture with 100 μM ALA and/or 100 μM Fe
Description: Heme was quantified in BPA homogenates using a QuantiChrom heme assay kit purchased from BioAssay Systems, and changes in absorbance were measured in a BIOTEK scanning microplate spectrophotometer. Briefly, segments were homogenized in 20 mM MOPS+sucrose buffer and diluted to approximately 5 mg protein/ml. Homogenates were centrifuged at 2000×g for 5 min, and 50 μl of supernatant obtained were assayed for their heme content based on the manufacture's instructions, employing measurements of changes in absorbance at 400 nm. The protein content of the supernatant was measured with Biorad protein assay kit, and tissue heme levels were reported as nanomoles/mg protein.

sGC [6] = molecular target: T1, sGC; assay: sGC activity in BPA homogenates (cGMP by ELISA); type: biochemical, bovine; set-up: Guanylate cyclase activity of homogenates of BPA was measured by enzyme immunoassay; from tissue; host or cells: BPA (pulmonary artery rings, organ cultured) homogenate; conditions: organ culture with 100 μM ALA and/or 100 μM Fe
Description: Guanylate cyclase activity of homogenates of BPA was measured by enzyme immunoassay of the amounts of cGMP generated. Briefly, BPA were pulverized in liquid nitrogen and homogenized in MOPS buffer 1:3 wt to buffer ratio at 5° C. Reaction mixture (0.2 ml final volume) contained 20 mM MOPS-KOH (pH 7.4), 0.1 mM GTP, 2 mM MgCl2, 0.3 mM of the phosphodiesterase inhibitor 3-Isobutyl-1-methylxanthine, a GTP-regenerating system consisting of 10 mM phosphocreatine and 150 U/ml creatine phosphokinase, and 0.1 ml of homogenate (11, 15), and test agents, as indicated. Assays of sGC activity were initiated by the addition of BPA homogenate. Incubations were conducted for 10 min at 37° C., and they were terminated by the addition of 0.1 ml of preheated 12 mM EDTA. This was followed by boiling the assay mixtures for 10 min and a subsequent addition of 5% trichloroacetic acid. The precipitate was removed by centrifugation and the supernatant was washed three times with water-saturated diethyl ether. Residual ether was removed by incubation at 70° C. for 5 minutes, prior to measurement of cGMP by ELISA (Cayman), as described in the manual supplied by manufacturer of the ELISA kit.

bovine airways = assay: Superoxide detection by lucigenin chemiluminescence in bovine airways; type: cell-based; conditions: 10 μM PDBu for 30 minutes
Description: Bovine bronchi were isolated from the same lungs used for pulmonary arteries, and studied for changes in protoporphyrin IX fluorescence and force under the same conditions as bovine pulmonary arteries described above. Superoxide was detected by the chemiluminescence produced by 5 μM lucigenin, which was detected by photon counting in a scintillation counter.

[7] = molecular target: T2, sGC purified from bovine lungs (Bos taurus, UniProt P16068); conditions: reference (34); cited from earlier work
T2 construct: host or cells: bovine lung
T2 sequence (P16068 1-619): T1 sequence (P16068 1-619)
T2 sequence (P19687 1-691 partner): T1 sequence (P19687 1-691 partner)

[8] = 100 μM Fe in the presence of 100 μM ALA
[9] = organ culture with 100 μM Fe alone
[10] = 10 μM ODQ on BPA organ cultured with 100 μM ALA

## C=CC1=C(C)c2cc3[nH]c(cc4nc(cc5[nH]c(cc1n2)c(C)c5CCC(=O)O)C(CCC(=O)O)=C4C)c(C)c3C=C [protoporphyrin IX]
sGC [1]
  binding affinity for the binding site on sGC: low nanomolar concentration range

## NCCCNCCCCN(CCCN)/[N+]([O-])=N/O [spermine-NONOate]
[2]; 10 μM spermine-NONOate
  VASP serine-239 phosphorylation: increased VASP phosphorylation
[3]; 10 μM spermine-NONOate
  relaxation of organ cultured BPA: relaxed

## O=S(=O)([O-])[O-].[Fe+2] [Fe, FeSO4]
[4]; [8]
  protoporphyrin IX fluorescence: reversed the increase in protoporphyrin IX fluorescence
[4]; [9]
  background fluorescence of BPA: did not alter the background fluorescence
[5]
  BPA heme levels: did not reach statistical significance
[3]; [8]
  force generation by 5-HT: reversed the force attenuating effects
[3]; [9]
  force generation by 5-HT: did not alter force generation
sGC [6]
  BPA homogenate sGC activity: did not alter sGC activity

## CCCC(=O)O[C@@H]1[C@@H](C)[C@@]2(O)[C@@H](C=C(CO)C[C@]3(O)C(=O)C(C)=C[C@@H]23)[C@@H]2C(C)(C)[C@]12OC(=O)CCC [PDBu]
Bovine airways
  superoxide detected by 5 μM lucigenin chemiluminescence: causes an increase in superoxide

## C=CC1=C(C)c2cc3[n-]c(cc4[n-]c(cc5nc(cc1n2)C(C)=C5C=C)c(C)c4CCC(=O)O)c(CCC(=O)O)c3C.[Fe+2] [heme]
[7]
  effect on activation of sGC by protoporphyrin IX: competitive inhibitor
sGC [1]; read-out: binding affinity for the binding site on sGC
  Kd: ~350 nM

## O=c1onc2cnc3ccccc3n12 [ODQ, 1H-[1,2,4]oxadiazolo[4,3-α]quinoxalin-1-one]
[2]; 10 μM ODQ alone, appeared to decrease
  VASP serine-239 phosphorylation: did not reach statistical significance
[2]; [10]
  increase in VASP serine-239 phosphorylation caused by ALA: did not significantly alter the increase in serine-239 VASP phosphorylation
[2]; 10 μM ODQ with 10 μM spermine-NONOate
  increase in VASP serine-239 phosphorylation caused by the NO donor: attenuate the increase caused by the NO donor
[3]; 10 μM ODQ alone
  force generation to 5-HT: did not alter
[3]; [10]
  decrease in contraction to 5-HT caused by ALA: did not alter
[3]; pretreatment with 10 μM ODQ, 10 μM spermine-NONOate
  relaxation to the NO donor: markedly attenuated relaxation
